Data as given in ChEMBL document CHEMBL4043086, “Facile access to pseudo-thio-1,2-dimannoside, a new glycomimetic DC-SIGN antagonist” (Bioorg Med Chem, 2017).

Each compound was assayed against T1, CD209 antigen (Homo sapiens, UniProt Q9NNX6) (assay: Inhibition of binding of immobilized mannosylated BSA to DC-SIGN extracellular domain (66 to 404 residues) (unknown origin) expressed in Escherichia coli by SPR assay).
T1 sequence (Q9NNX6 whole entry): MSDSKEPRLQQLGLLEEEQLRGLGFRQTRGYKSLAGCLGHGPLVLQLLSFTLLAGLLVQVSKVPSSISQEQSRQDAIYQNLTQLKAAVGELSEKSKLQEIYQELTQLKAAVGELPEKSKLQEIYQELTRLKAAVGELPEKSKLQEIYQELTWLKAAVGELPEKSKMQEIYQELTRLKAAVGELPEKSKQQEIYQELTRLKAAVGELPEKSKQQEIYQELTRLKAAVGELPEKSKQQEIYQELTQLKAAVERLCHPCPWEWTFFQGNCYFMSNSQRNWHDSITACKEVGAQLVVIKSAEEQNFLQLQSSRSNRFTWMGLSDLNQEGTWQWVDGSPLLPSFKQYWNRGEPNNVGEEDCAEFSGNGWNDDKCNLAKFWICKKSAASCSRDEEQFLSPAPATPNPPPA

| Structure (SMILES) | IC50 [µM] |
| --- | --- |
| COC(=O)[C@H]1C[C@H](OC(=O)C(C)(C)C)[C@@H](S[C@H]2O[C@H](CO)[C@@H](O)[C@H](O)[C@@H]2O)C[C@@H]1C(=O)OC | 776 |
| COC(=O)[C@H]1C[C@H](OC)[C@@H](S[C@H]2O[C@H](CO)[C@@H](O)[C@H](O)[C@@H]2O)C[C@@H]1C(=O)OC | 776 |
| COC(=O)[C@H]1C[C@H](OC)[C@@H](O[C@H]2O[C@H](CO)[C@@H](O)[C@H](O)[C@@H]2O)C[C@@H]1C(=O)OC | 720 |
